In US10780084B2, “Antibody-recruiting molecules for the treatment of cancer” (YALE UNIVERSITY, priority 2016, dated 2020):

Target: T1, recombinant uPAR (Homo sapiens, UniProt Q03405)
T1 construct: purchased R&D systems
Assay: Competitive ELISA uPAR binding assay (displacement of uPAR from immobilized urokinase)
Conditions: for IC50 / Ki: ELISA assay, competition with urokinase for recombinant uPAR; for Ratio of IC50 (Compound)/IC50 6-ABT-1: relative to control 6-ABT-1
Procedure: The affinity of derivatives are assayed using a competitive ELISA binding assay. The assay involves the immobilization of urokinase, a natural high affinity ligand for uPAR followed by the addition of a fixed concentration of recombinant uPAR protein and increasing concentrations of test compounds which competes with urokinase for binding to the uPA binding site of uPAR. Following several washing steps, the amount of uPAR bound is quantified by a biotinylated anti-uPAR antibody and avidin-HRP and can be fit to a competitive binding model allowing for determination of the uPAR/test compound Kd.
All derivatives were assessed for their ability to hind selectively to recombinant uPAR in vitro using a competitive ELISA binding assay. DMSO stock solutions of each derivative stored at −20° C. were titrated into wells pre-coated with human urokinase (isolated from human urine, ProSpec 1 mg/mL deionized water 18.5 μM) in the presence of uPAR. Selective binding to uPAR by compounds at the uPA binding site competes with uPAR-uPA binding which is required for a positive UV 450 nm absorbance signal. Increasing concentrations of test compound displace increasing amounts of uPAR from uPA which is detected by anti-uPAR/biotin labeled antibodies followed by avidin-HRP.
ELISA assay substantially as described above was used to test certain of the compounds of the present invention for biological characteristics. In addition, the compound 6-ABT-1 as described in WO2017/023994 was tested as a control.

T1 sequence (Q03405 23-305): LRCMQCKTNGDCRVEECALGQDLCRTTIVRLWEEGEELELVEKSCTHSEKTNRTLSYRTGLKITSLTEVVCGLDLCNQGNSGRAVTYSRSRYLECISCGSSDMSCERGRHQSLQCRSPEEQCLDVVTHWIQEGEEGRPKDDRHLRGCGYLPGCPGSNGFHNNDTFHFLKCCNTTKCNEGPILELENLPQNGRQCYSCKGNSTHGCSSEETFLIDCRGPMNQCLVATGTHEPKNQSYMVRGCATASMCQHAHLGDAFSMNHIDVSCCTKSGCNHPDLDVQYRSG

SMILES	IC50	Ki	Ratio of IC50 (Compound)/IC50 6-ABT-1
COC(=O)c1ccc(Nc2cc(N3CCC(C(=O)NCCCOCCOCCOCCCNc4ccc([N+](=O)[O-])cc4[N+](=O)[O-])CC3)c3noc4c3c2C(=O)c2ccccc2-4)c(C(=O)OC)c1 [ARM-U2 derivative 11-ABT-5]	> 100000 nM	> 2000 nM	>56
COc1ccc(Nc2cc(N3CCC(C(=O)NCCCOCCOCCOCCCNc4ccc([N+](=O)[O-])cc4[N+](=O)[O-])CC3)c3noc4c3c2C(=O)c2ccccc2-4)c(S(=O)(=O)O)c1 [ARM-U2 derivative 8-ABT-5]	540 nM	11 nM	0.28
O=C1c2ccccc2-c2onc3c(N4CCC(C(=O)NCCCOCCOCCOCCCNc5ccc([N+](=O)[O-])cc5[N+](=O)[O-])CC4)cc(Nc4ccc(S(=O)(=O)O)cc4S(=O)(=O)O)c1c23 [ARM-U2 derivative 6-ABT-5]	544 nM	11 nM	0.7
O=C1c2ccccc2-c2onc3c(N4CCC(C(=O)NCCCOCCOCCOCCCNc5ccc([N+](=O)[O-])cc5[N+](=O)[O-])CC4)cc(Nc4ccc(S(=O)(=O)O)cc4)c1c23 [ARM-U2 derivative 7-ABT-5]	2360 nM	48.4 nM	1.15
O=C1c2ccccc2-c2onc3c(N4CCC(C(=O)NCCCOCCOCCOCCCNc5ccc([N+](=O)[O-])cc5[N+](=O)[O-])CC4)cc(Nc4cc(C5CC5)no4)c1c23 [ARM-U2 derivative 15-ABT-5]	18000 nM	371 nM	12.85
O=C1c2ccccc2-c2onc3c(N4CCC(C(=O)NCCCOCCOCCOCCCNc5ccc([N+](=O)[O-])cc5[N+](=O)[O-])CC4)cc(Nc4ccc(Cl)cc4S(=O)(=O)O)c1c23 [ARM-U2 derivative 9-ABT-5]	485 nM	9.84 nM	0.255
COC(=O)c1ccc(Nc2cc(N3CCC(C(=O)NCCCOCCOCCOCCCNc4ccc([N+](=O)[O-])cc4[N+](=O)[O-])CC3)c3noc4c3c2C(=O)c2ccccc2-4)c(Cl)c1 [ARM-U2 derivative 12-ABT-5]	> 100000 nM	> 2000 nM	71.4
O=C1c2ccccc2-c2onc3c(N4CCC(C(=O)NCCCOCCOCCOCCCNc5ccc([N+](=O)[O-])cc5[N+](=O)[O-])CC4)cc(Nc4cc(S(=O)(=O)O)ccc4S(=O)(=O)O)c1c23 [ARM-U2 derivative 19-ABT-5]	2570 nM	52.7 nM	0.81
CCOC(=O)c1cn(C)nc1Nc1cc(N2CCC(C(=O)NCCCOCCOCCOCCCNc3ccc([N+](=O)[O-])cc3[N+](=O)[O-])CC2)c2noc3c2c1C(=O)c1ccccc1-3 [ARM-U2 derivative 16-ABT-5]	55200 nM	1140 nM	39.41
COC(=O)c1cc(Nc2cc(N3CCC(C(=O)NCCCOCCOCCOCCCNc4ccc([N+](=O)[O-])cc4[N+](=O)[O-])CC3)c3noc4c3c2C(=O)c2ccccc2-4)nn1C [ARM-U2 derivative 13-ABT-5]	> 100000 nM	> 2000 nM	71.4
COC(=O)c1ccc(Nc2cc(N3CCC(C(=O)NCCCOCCOCCOCCCNc4ccc([N+](=O)[O-])cc4[N+](=O)[O-])CC3)c3noc4c3c2C(=O)c2ccccc2-4)cc1 [ARM-U2 derivative 10-ABT-5]	> 100000 nM	> 2000 nM	71.4
O=C(O)c1cc(Cl)ccc1Nc1cc(N2CCC(C(=O)NCCCOCCOCCOCCCNc3ccc([N+](=O)[O-])cc3[N+](=O)[O-])CC2)c2noc3c2c1C(=O)c1ccccc1-3 [ARM-U2 derivative 18-ABT-5]	3090 nM	63.5 nM	0.98
NS(=O)(=O)c1ccc(Nc2cc(N3CCC(C(=O)NCCCOCCOCCOCCCNc4ccc([N+](=O)[O-])cc4[N+](=O)[O-])CC3)c3noc4c3c2C(=O)c2ccccc2-4)cc1 [ARM-U2 derivative 14-ABT-5]	> 100000 nM	> 2000 nM	71.4
COC(=O)c1cc(OC)ccc1Nc1cc(N2CCC(C(=O)NCCCOCCOCCOCCCNc3ccc([N+](=O)[O-])cc3[N+](=O)[O-])CC2)c2noc3c2c1C(=O)c1ccccc1-3 [ARM-U2 derivative 17-ABT-5]	> 100000 nM	> 2000 nM	>31
